Measured values published in ChEMBL document CHEMBL4138254 (ACS Med Chem Lett, 2017).
In brackets after ≈: the same amount, converted by molar mass.

Tests used:
Autotaxin [1] = molecular target: T1, Autotaxin (Rattus norvegicus, UniProt Q64610); assay: Inhibition of ATX in rat whole blood using LPA 17:0 as substrate after 1 hr by LC-MS/MS analysis
[2] = molecular target: Voltage-gated inwardly rectifying potassium channel KCNH2 (Homo sapiens, UniProt Q12809)
Description: Inhibition of human ERG expressed in HEK293 cells by patch clamp assay

physchem [3] = settings: pH 6.8 buffer solution
Description: Aqueous solubility of the compound in pH 6.8 buffer solution after 24 hrs by LC-UV analysis

Autotaxin [4] = molecular target: T1, Autotaxin; assay: Inhibition of recombinant rat ATX using LPC 18:1 as substrate after 2 hrs by rapidfire/MS-based analysis
physchem [5] = settings: pH 4.5 buffer solution
Description: Aqueous solubility of the compound in pH 4.5 buffer solution after 24 hrs by LC-UV analysis

in vitro [6] = settings: rat, liver microsomes
Description: Clearance in rat liver microsomes at 1 uM in presence of NADPH by LC-MS/MS analysis relative to hepatic blood flow

physchem [7] = settings: pH 2.2 buffer solution
Description: Aqueous solubility of the compound in pH 2.2 buffer solution after 24 hrs by LC-UV analysis

in vitro [8] = settings: human, Caco-2
Description: Apparent permeability across apical to basolateral side in human Caco2 cells at 10 uM measured up to 90 mins

in vitro [9] = settings: human, liver microsomes
Description: Clearance in human liver microsomes at 1 uM in presence of NADPH by LC-MS/MS analysis relative to hepatic blood flow

Chain of Voltage-gated inwardly rectifying potassium channel KCNH2 (Q12809 whole entry): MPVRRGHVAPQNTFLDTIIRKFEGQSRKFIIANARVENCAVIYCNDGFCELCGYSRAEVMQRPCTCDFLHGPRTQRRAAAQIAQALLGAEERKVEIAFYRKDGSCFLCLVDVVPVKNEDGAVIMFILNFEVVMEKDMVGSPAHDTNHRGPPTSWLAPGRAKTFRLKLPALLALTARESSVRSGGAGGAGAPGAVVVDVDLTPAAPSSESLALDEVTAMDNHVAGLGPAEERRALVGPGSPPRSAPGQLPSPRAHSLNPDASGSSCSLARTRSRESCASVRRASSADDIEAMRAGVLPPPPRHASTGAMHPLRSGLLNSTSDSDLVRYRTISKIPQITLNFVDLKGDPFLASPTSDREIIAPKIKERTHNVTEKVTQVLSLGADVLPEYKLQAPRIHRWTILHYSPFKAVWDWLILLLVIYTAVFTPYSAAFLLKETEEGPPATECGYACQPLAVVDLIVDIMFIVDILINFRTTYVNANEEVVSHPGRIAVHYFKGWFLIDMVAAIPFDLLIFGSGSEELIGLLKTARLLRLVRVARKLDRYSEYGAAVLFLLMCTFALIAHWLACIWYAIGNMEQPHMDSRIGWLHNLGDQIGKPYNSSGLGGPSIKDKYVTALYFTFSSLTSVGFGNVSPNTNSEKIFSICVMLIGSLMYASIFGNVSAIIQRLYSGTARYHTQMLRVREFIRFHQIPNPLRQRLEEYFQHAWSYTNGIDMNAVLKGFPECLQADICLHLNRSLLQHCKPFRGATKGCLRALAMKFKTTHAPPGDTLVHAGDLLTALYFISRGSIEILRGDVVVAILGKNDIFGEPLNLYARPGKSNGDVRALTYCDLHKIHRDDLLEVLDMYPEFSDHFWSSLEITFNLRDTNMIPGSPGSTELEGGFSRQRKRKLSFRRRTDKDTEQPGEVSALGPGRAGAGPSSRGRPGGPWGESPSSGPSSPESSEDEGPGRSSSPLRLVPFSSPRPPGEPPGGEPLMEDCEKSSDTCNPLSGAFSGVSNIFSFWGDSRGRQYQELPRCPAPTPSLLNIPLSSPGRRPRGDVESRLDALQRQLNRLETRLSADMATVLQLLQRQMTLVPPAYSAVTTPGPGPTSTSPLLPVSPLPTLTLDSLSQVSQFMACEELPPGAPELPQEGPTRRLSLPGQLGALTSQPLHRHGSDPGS

Row | Structure (SMILES) | IC50 (Autotaxin [1]) | solubility at 24 h (physchem [3]) | IC50 (Autotaxin [4]) | solubility at 24 h (physchem [5]) | hepatic extraction ratio at 1 µM (in vitro [6]) | solubility at 24 h (physchem [7]) | Papp A→B at 1.5 h, 10 µM (in vitro [8]) | hepatic extraction ratio at 1 µM (in vitro [9]) | IC50 [2]
1 | O=C(CCN1CCN(C(=O)OCc2cc(Cl)cc(Cl)c2)CC1)c1ccc2[nH]c(=O)oc2c1 | 0.307 µM | – | – | – | – | – | – | – | 0.48 µM
2 | N#Cc1cc(COC(=O)N2C[C@@H]3[C@@H](CNC(=O)N4CCc5c(O)noc5C4)[C@@H]3C2)cc(C(=O)OC(F)(F)F)c1 | – | > 113 µg/mL | 0.01 µM | < 1 µg/mL | < 0.22 | < 1 µg/mL | – | < 0.23 | > 10 µM
3 | O=C(NC[C@@H]1[C@H]2CN(C(=O)N3CCc4c(Cl)cc(Cl)cc4C3)C[C@@H]12)c1ccc2[nH]c(=O)oc2c1 | – | < 1 µg/mL | 0.0826 µM | < 1 µg/mL | 0.53 | < 1 µg/mL | 47 ×10⁻⁶ cm/s | – | –
4 | Cc1ccc(COC(=O)N2C[C@@H]3[C@@H](CNC(=O)c4ccc5[nH]c(=O)oc5c4)[C@@H]3C2)nc1 | 1.61 µM | 56 µg/mL (≈ 133 µM) | 1.53 µM | 66 µg/mL (≈ 156 µM) | < 0.22 | > 92 µg/mL | 1 ×10⁻⁶ cm/s | 0.25 | > 10 µM
5 | N#Cc1cc(COC(=O)N2C[C@@H]3[C@@H](CNC(=O)NCCCc4cnn[nH]4)[C@@H]3C2)cc(C(=O)OC(F)(F)F)c1 | 0.065 µM | – | 0.0055 µM | – | – | – | – | – | –

The next lines start with results.

Row | IC50 (Autotaxin [1]) | solubility at 24 h (physchem [3]) | IC50 (Autotaxin [4]) | solubility at 24 h (physchem [5]) | hepatic extraction ratio at 1 µM (in vitro [6]) | solubility at 24 h (physchem [7]) | Papp A→B at 1.5 h, 10 µM (in vitro [8]) | hepatic extraction ratio at 1 µM (in vitro [9]) | Structure (SMILES) | IC50 [2]
6 | 0.056 µM | < 1 µg/mL | 0.0031 µM | < 1 µg/mL | 0.64 | < 1 µg/mL | 137 ×10⁻⁶ cm/s | 0.41 | O=C(NC[C@@H]1[C@H]2CN(C(=O)OCc3cc(Cl)cc(Cl)c3)C[C@@H]12)c1ccc2[nH]c(=O)oc2c1 | > 10 µM
7 | – | 63 µg/mL (≈ 153 µM) | 1.67 µM | > 93 µg/mL | < 0.22 | > 86 µg/mL | 2 ×10⁻⁶ cm/s | < 0.23 | Cc1cc(COC(=O)N2C[C@@H]3[C@@H](CNC(=O)c4ccc5[nH]c(=O)oc5c4)[C@@H]3C2)no1 | > 10 µM
8 | 0.077 µM | < 1 µg/mL | 0.0139 µM | < 1 µg/mL | 0.35 | < 1 µg/mL | 2 ×10⁻⁶ cm/s | 0.36 | O=C(NC[C@@H]1[C@H]2CN(C(=O)NCc3cc(Cl)cc(Cl)c3)C[C@@H]12)c1ccc2[nH]c(=O)oc2c1 | > 10 µM
9 | 0.094 µM | < 1 µg/mL | 0.0019 µM | < 1 µg/mL | 0.56 | < 1 µg/mL | 44 ×10⁻⁶ cm/s | 0.48 | N#Cc1cc(COC(=O)N2C[C@@H]3[C@@H](CNC(=O)c4ccc5[nH]c(=O)oc5c4)[C@@H]3C2)cc(OC(F)(F)F)c1 | > 10 µM
